Assay results: US11826396B2, “Nutriprotective diet” (FÉDÉRATION DES PRODUCTEURS ACÉRICOLES DU QUÉBEC, priority 2011, dated 2023)

Test: diphenylpicrylhydrazyl (DPPH) radical scavenging assay
Format: biochemical
Settings: read-out: antioxidant activity, IC50

Row | IC50 [mM] | Structure (SMILES)
1 | 0.058 | O=C1O[C@H]([C@@H](O)CO)C(O)=C1O [vitamin C, Ascorbic acid]
2 | 2.65 | Cc1cc(C(C)(C)C)c(O)c(C(C)(C)C)c1 [butylatedhydroxytoluene]
